Experimental data as given in patent US9828342B2, “Isatin derivatives, pharmaceutical compositions thereof, and methods of use thereof” (CITY OF HOPE, priority 2012, dated 2017).
Where two headings read alike, the source gives them in different places.

Experiments:
[1] = system: DU145 prostate cancer cells; test: MTS cell viability assay in DU145 prostate cancer cells; assay type: cell-based
Description: (§1) Then, MTS assays for cell viability were carried out to determine the IC50 values. Four samples were tested for each isatin derivative at each concentration in each cell line, and the averaged data were shown in Table 2a and FIGS. 1˜4.
(§2) IC50 of values of isatin derivatives Compounds 101˜123 were determined in cancer cell lines DU145 and A2058 respectively.

[2] = system: A2058 human melanoma cells; test: MTS cell viability assay in A2058 melanoma cells; assay type: cell-based
Description: as §1, §2

[3] = DU145, compound in DMSO, 48 hr, MTS (Table 2b), read-out: IC50 value, DMSO, DU145
[4] = Homo sapiens, DU-145, 48 h, DU145, compound in water, 48 hr, MTS (Table 2b), read-out: IC50 value, Water, DU145
[5] = A2058, compound in DMSO, 48 hr, MTS (Table 2b), read-out: IC50 value, DMSO, A2058
[6] = Homo sapiens, A2058, 48 h, A2058, compound in water, 48 hr, MTS (Table 2b), read-out: IC50 value, Water, A2058
[7] = Homo sapiens, DU-145, 48 h, DU145, compound in DMSO, 48 hr, MTS (Table 2b), read-out: IC50 value, DMSO, DU145
[8] = Homo sapiens, A2058, 48 h, A2058, compound in DMSO, 48 hr, MTS (Table 2b), read-out: IC50 value, DMSO, A2058
[9] = Homo sapiens, DU-145, 48 h, DU145, 48 hr, 0.05 to 10 μM in 1% DMSO, MTS (Table 2a), read-out: DU145 IC50
[10] = Homo sapiens, A2058, 48 h, 0.05 to 10 μM in 1% DMSO, MTS (Table 2a), read-out: A2058 IC50

O=C1C(=O)N(C/C=C/c2ccncc2)c2ccc(-c3cccnc3)cc21 [Compound 107]
IC50 [1, 3]: 960 nM | IC50 [1, 4]: 740 nM | IC50 [2, 5]: 2000 nM | IC50 [2, 6]: 1600 nM

O=C1C(=O)N(Cc2ccc(I)cc2)c2ccc(-c3cccnc3)cc21 [Compound 121]
IC50 [1, 7]: 500 nM | IC50 [2, 8]: 350 nM

O=C1C(=O)N(C/C=C/c2ccccc2)c2ccc(-c3cccnc3F)cc21 [Compound 31]
IC50 [1, 9]: 260 nM | IC50 [2, 10]: 350 nM

CO/N=C1/C(=O)N(Cc2ccccc2)c2ccc(-c3cccnc3)cc21 [Compound 34]
IC50 [1, 9]: > 5000 nM | IC50 [2, 10]: > 5000 nM

O=C1C(=O)N(C/C=C/c2cccnc2)c2ccc(-c3cccnc3)cc21 [Compound 108]
IC50 [1, 7]: 450 nM | IC50 [2, 8]: 500 nM

CC(=O)OC1C(=O)N(Cc2ccccc2)c2ccc(-c3cccnc3)cc21 (centres unmarked) [Compound 14, 3-Acetoxy-N-Benzyl-5-(pyridin-3-yl)indoline-2-one]
IC50 [1, 9]: > 5000 nM | IC50 [2, 10]: > 5000 nM

O=C1C(=O)N(Cc2ccccc2I)c2ccc(-c3cccnc3)cc21 [Compound 117]
IC50 [1, 7]: 3400 nM | IC50 [2, 8]: 1900 nM

O=C1C(=O)N(CCCc2ccccc2)c2ccc(-c3ccccc3)cc21 [Compound 23]
IC50 [1, 9]: 4200 nM | IC50 [2, 10]: 5900 nM

CCN(CCN1C(=O)C(=O)c2cc(-c3cccnc3)ccc21)c1ccccc1 [Compound 113]
IC50 [1, 4]: > 5000 nM | IC50 [2, 6]: > 5000 nM

O=C1C(=O)N(Cc2ccccc2)c2ccc(-c3ccccc3)cc21 [Compound 32]
IC50 [1, 9]: 4100 nM | IC50 [2, 10]: 1900 nM

O=C1C(=O)N(C/C=C/c2ccncc2)c2ccc(-c3cccnc3)cc21 [Compound 106]
IC50 [1, 7]: 740 nM | IC50 [2, 8]: 1400 nM

O=C1C(=O)N(Cc2ccccn2)c2ccc(-c3cccnc3)cc21 [Compound 102]
IC50 [1, 3]: 4100 nM | IC50 [2, 5]: 3700 nM

O=C1C(=O)N(Cc2ccccc2)c2ccc(I)cc21 [Compound 4, N-benzyl-5-iodoindoline-2,3-dione]
IC50 [1, 9]: 2400 nM | IC50 [2, 10]: 3800 nM

O=C1C(=O)N(CCCc2ccccc2)c2ccc(-c3cncnc3)cc21 [Compound 26]
IC50 [1, 9]: 530 nM | IC50 [2, 10]: 700 nM

O=C1C(=O)N(C/C=C/c2ccccc2)c2ccc(-c3cncnc3)cc21 [Compound 27]
IC50 [1, 9]: 360 nM | IC50 [2, 10]: 400 nM

O=C1C(=O)N(Cc2ccccc2)c2cccc(Br)c21 [Compound 5]
IC50 [1, 9]: > 10000 nM | IC50 [2, 10]: > 10000 nM

C[Si](C)(C)CCOCN1C(=O)C(=O)c2cc(I)ccc21 [Compound 6]
IC50 ([1]; Homo sapiens, DU-145, DU145, 48 hr, 0.05 to 10 μM in 1% DMSO, MTS (Table 2a), read-out: DU145 IC50): 4600 nM | IC50 ([2]; Homo sapiens, A2058, 48 hr, 0.05 to 10 μM in 1% DMSO, MTS (Table 2a), read-out: A2058 IC50): 6900 nM

O=C1C(=O)N(C/C=C/c2ccc3ccccc3n2)c2ccc(-c3cccnc3)cc21 [Compound 115]
IC50 [1, 3]: 1400 nM | IC50 [1, 4]: 1900 nM | IC50 [2, 5]: 680 nM | IC50 [2, 6]: 1900 nM

O=C1/C(=N/O)c2cc(-c3cccnc3)ccc2N1Cc1ccccc1 [Compound 33]
IC50 [1, 9]: > 5000 nM | IC50 [2, 10]: > 5000 nM

O=C1C(=O)N(CCCc2cccnc2)c2ccc(-c3cccnc3)cc21 [Compound 105]
IC50 [1, 3]: 2500 nM | IC50 [1, 4]: 4600 nM | IC50 [2, 5]: 4800 nM | IC50 [2, 6]: 4700 nM

O=C1C(=O)N(Cc2cccc(-c3cccnc3)c2)c2ccc(-c3cccnc3)cc21 [Compound 119]
IC50 [1, 7]: 2300 nM | IC50 [2, 8]: 1400 nM

Cc1ccc2c(c1)C(=O)C(=O)N2CCCc1ccccc1 [Compound 19]
IC50 [1, 9]: > 5000 nM | IC50 [2, 10]: > 5000 nM

O=C1C(=O)N(CCc2ccccc2)c2ccc(-c3cccnc3)cc21 [Compound 8]
IC50 [1, 9]: 5000 nM | IC50 [2, 10]: > 5000 nM

CN1C(=O)C(=O)c2cc(-c3cccnc3)ccc21 [Compound 7]
IC50 [1, 9]: 4300 nM | IC50 [2, 10]: 4200 nM

O=C1C(=O)N(CCCc2ccccc2)c2ccc(-c3ccsc3)cc21 [Compound 24]
IC50 [1, 9]: 2500 nM | IC50 [2, 10]: 2900 nM

CCCc1ccc2c(c1)C(=O)C(=O)N2CCCc1ccccc1 [Compound 20]
IC50 [1, 9]: > 5000 nM | IC50 [2, 10]: 2500 nM

O=C1C(=O)N(CCOCCO)c2ccc(-c3cccnc3)cc21 [Compound 11]
IC50 [1, 9]: > 5000 nM | IC50 [2, 10]: > 5000 nM

O=C1C(=O)N(Cc2ccc(-c3cccnc3)cc2)c2ccc(-c3cccnc3)cc21 [Compound 123]
IC50 [1, 3]: 600 nM | IC50 [1, 4]: 2300 nM | IC50 [2, 5]: 380 nM | IC50 [2, 6]: 800 nM

O=C1C(=O)N(C/C=C/c2ccc3ccccc3n2)c2ccc(-c3cccnc3)cc21 [Compound 114]
IC50 [1, 7]: 1000 nM | IC50 [2, 8]: 650 nM

O=C1C(O)c2cc(-c3cccnc3)ccc2N1Cc1ccccc1 (centres unmarked) [Compound 13, N-Benzyl-3-hydroxy-5-(pyridin-3-yl)indoline-2-one]
IC50 [1, 9]: 2500 nM | IC50 [2, 10]: 2300 nM

O=C1C(=O)N(C/C=C/c2ccccn2)c2ccc(-c3cccnc3)cc21 [Compound 111]
IC50 [1, 3]: 480 nM | IC50 [1, 4]: 500 nM | IC50 [2, 5]: 580 nM | IC50 [2, 6]: 840 nM

O=C1C(=O)N(Cc2ccccc2-c2cccnc2)c2ccc(-c3cccnc3)cc21 [Compound 118]
IC50 [1, 7]: > 5000 nM | IC50 [2, 8]: 3300 nM

O=C1C(=O)N(Cc2ccc(-c3cccnc3)cc2)c2ccc(-c3cccnc3)cc21 [Compound 122]
IC50 [1, 7]: 580 nM | IC50 [2, 8]: 380 nM

O=C1C(=O)N(CCCc2ccccc2)c2ccc(-c3ccncc3)cc21 [Compound 28]
IC50 [1, 9]: 1300 nM | IC50 [2, 10]: 1600 nM

CC(C)c1ccc2c(c1)C(=O)C(=O)N2CCCc1ccccc1 [Compound 21]
IC50 [1, 9]: > 5000 nM | IC50 [2, 10]: 3200 nM

O=C1C(=O)N(Cc2cccc(-c3cccnc3)c2)c2ccc(-c3cccnc3)cc21 [Compound 120]
IC50 [1, 3]: 2300 nM | IC50 [1, 4]: 4100 nM | IC50 [2, 5]: 1200 nM | IC50 [2, 6]: 1900 nM

O=C1C(=O)N(CCCc2cccnc2)c2ccc(-c3cccnc3)cc21 [Compound 104]
IC50 [1, 3]: 910 nM | IC50 [2, 5]: 2100 nM

O=C1C(=O)N(Cc2ccccn2)c2ccc(-c3cccnc3)cc21 [Compound 103]
IC50 [1, 7]: 4300 nM | IC50 [2, 8]: 4400 nM

O=C1C(=O)N(Cc2ccccc2)c2cc(Br)ccc21 [Compound 3, N-benzyl-6-bromoindoline-2,3-dione]
IC50 [1, 9]: 8500 nM | IC50 [2, 10]: 8400 nM

O=C1C(=O)N(C/C=C/c2ccccc2)c2ccc(-c3ccsc3)cc21 [Compound 30]
IC50 [1, 9]: 870 nM | IC50 [2, 10]: 1400 nM

O=C1C(=O)N(CCCc2ccccc2)c2ccc(-c3ccco3)cc21 [Compound 25]
IC50 [1, 9]: 1500 nM | IC50 [2, 10]: 2000 nM

O=C1C(=O)N(C/C=C/c2ccccn2)c2ccc(-c3cccnc3)cc21 [Compound 110]
IC50 [1, 7]: 470 nM | IC50 [2, 8]: 580 nM

O=C1C(=O)N(C/C=C/c2ccccc2)c2ccc(-c3ccc(F)nc3)cc21 [Compound 29]
IC50 [1, 9]: 330 nM | IC50 [2, 10]: 300 nM

CCN(CCN1C(=O)C(=O)c2cc(-c3cccnc3)ccc21)c1ccccc1 [Compound 112]
IC50 [1, 7]: > 5000 nM | IC50 [2, 8]: > 5000 nM

O=C1C(=O)N(C/C=C/c2cccnc2Cl)c2ccc(-c3cccnc3)cc21 [Compound 116]
IC50 [1, 7]: 660 nM | IC50 [2, 8]: 390 nM

O=C1Cc2cc(-c3cccnc3)ccc2N1Cc1ccccc1 [Compound 15, N-Benzyl-5-(pyridin-3-yl)indoline-2-one]
IC50 [1, 9]: > 5000 nM | IC50 [2, 10]: > 5000 nM

O=C1C(=O)N(CCO)c2ccc(-c3cccnc3)cc21 [Compound 10]
IC50 [1, 9]: > 5000 nM | IC50 [2, 10]: > 5000 nM

O=C1C(=O)N(Cc2ccccc2)c2cc(-c3ccccc3)ccc21 [Compound 1]
IC50 [1, 9]: > 10000 nM | IC50 [2, 10]: > 10000 nM

O=C1C(=O)N(C/C=C/c2ccccc2)c2ccc(-c3cccc([N+](=O)[O-])c3)cc21 [Compound 101]
IC50 [1, 7]: 2100 nM | IC50 [2, 8]: 2200 nM
